Assay results reported in patent US20100160262A1, “COMPOSITIONS AND METHODS FOR MODULATING SIRTUIN ACTIVITY” (priority 2008, published 2010).

Key:
[1] = system: HIV LTR luciferase (Tat/AcTat transactivation); assay: Nuclear microinjection of synthetic Tat or AcTat with HIV LTR luciferase reporter into HeLa cells; assay type: cell-based; conditions: for basal HIV promoter activity / transcriptional activity of AcTat (transactivation of the HIV promoter): TSA 400 nM or nicotinamide 5 mM for four hours, siRNA 48 hours before microinjection
Method: Subconfluent MEFs (70%) were grown on Cellocate coverslips (Eppendorf, Westbury, N.Y.), and nuclear microinjections were performed at room temperature with an automated injection system (Eppendorf Micromanipulator 5171 together with Eppendorf Transjector 5246). Samples were prepared as a 20 μl injection mix containing the HIV LTR luciferase reporter or 5xUAS luciferase (each 100 ng/μl), RSV-Tat (10 ng/μl) or Ga14-VP16 (50 ng/μl), CMV-CyclinT1 (100 ng/μl), CMV-SIRT1 (100 or 300 ng/μl) together with CMV-GFP (50 ng/μl) in sterile water. Six hours after microinjection, cells were examined under a Nikon Eclipse TE300 inverted fluorescent microscope to determine the number of GFP-positive cells, washed in cold phosphate buffer, and stored at −70° C. for luciferase assays (Promega). In HeLa cells, synthetic Tat or AcTat proteins (each 30 or 100 ng/μl) were co-injected with the wildtype or mutant HIV LTR luciferase reporters (each 100 ng/μl) together with CMV-GFP (50 ng/μl) and harvested four hours after injection. Cells were treated immediately after injection with 5,6-dichlorobenzimidazole riboside (DRB; 10 or 50 μM; Sigma), TSA (400 nM), or nicotinamide (5 mM). Microinjections in siRNA-treated cells were performed 48 hours after siRNA transfection.

[2] = system: EF-1α promoter GFP expression; assay: HIV-based lentiviral vector with EF-1α promoter driving GFP in Jurkat T cells; assay type: cell-based; conditions: 1 μM, 36 hours
Method: (§1) The HIV molecular clone (HIV-R7/E^−/GFP) containing the GFP open reading frame in place of the nef gene and a frameshift mutation in the env gene as well as the method to generate pseudotyped viral particles with VSV-G was previously described. Jordan et al. (2003) Embo J 22: 1868-1877. The number of infective particles per ml was established by infecting 3×10^5 Jurkat cells with different amounts of viral suspension. The titer of the viral stock was measured by flow cytometry analysis of GFP expression 48 hours after infection. The pHR′-EF-1α/GFP construct is a minimal nonreplicative HIV-1 genome containing a heterologous promoter (EF-1α) driving GFP expression. Naldini et al. (1996) Science 272: 263-267. […]. Zufferey et al. (1997) Nat Biotechnol 15: 871-875. All vectors for the production of HIV-based lentiviral vectors were provided by D. Trono, University of Geneva, Switzerland. Jurkat T cells were incubated overnight with HIV-R7/E^−/GFP or pHR′-EF-1α/GFP viral particles at a theoretical multiplicity of infection (m.o.i.) of 0.5 in 24-well plates. […] Viral infection was monitored 36 hours later by flow cytometry analysis using a Calibur FACScan (Becton Dickinson).

[3] = system: HIVNL4-3 containing the GFP open reading frame in place of nef; assay: Single-cycle HIV infection of Jurkat T cells, GFP expression by flow cytometry; assay type: cell-based; conditions: 1 μM, 36 hours after overnight infection
Method: as §1

RSV LTR = assay: RSV luciferase control reporter in transfected HeLa cells; assay type: cell-based, Rous sarcoma virus; conditions: 1 μM
Method: (§2) In co-transfection experiments, human CMV-SIRT1 or CMV-SIRT1H363Y (600 ng) was co-transfected into HeLa cells plated in six-well plates with the HIV LTR luciferase reporter (200 ng) or the LTRΔNF-kB-luciferase reporter (200 ng) and increasing amounts of RSV-Tat (0 ng, 2 ng, 20 ng, and 200 ng) using the lipofectamine reagents (Invitrogen). In the control experiment, RSV-Tat was replaced by RSV luciferase (200 ng), and the HIV LTR luciferase construct was replaced by the HIV LTR CAT reporter. […] The RSV-luciferase construct was used as described above. […] Cells were harvested 8 hr later and processed for luciferase assays.

[4] = system: Tat-dependent HIV transcription (HIV LTR luciferase); assay: Tat transactivation of HIV LTR luciferase reporter in transfected HeLa cells; assay type: cell-based; conditions: ~1 μM, 8 hours
Method: as §2

p53 = p53 acetylation; assay type: cell-based; conditions: 1 μM
SIRT1 = target: T1, SIRT1 (Homo sapiens, UniProt Q96EB6); assay: In vitro Tat deacetylation assay with immunoprecipitated SIRT1; assay type: biochemical; conditions: immunoprecipitated SIRT1, AcTat, NAD+; western blot α-AcTat; nicotinamide 5 mM, TSA 400 nM
T1 construct: made in house; host or cells: 293 cells (HEK 293), transient transfection, anti-FLAG M2 agarose immunoprecipitate
T1 sequence (Q96EB6 1-747): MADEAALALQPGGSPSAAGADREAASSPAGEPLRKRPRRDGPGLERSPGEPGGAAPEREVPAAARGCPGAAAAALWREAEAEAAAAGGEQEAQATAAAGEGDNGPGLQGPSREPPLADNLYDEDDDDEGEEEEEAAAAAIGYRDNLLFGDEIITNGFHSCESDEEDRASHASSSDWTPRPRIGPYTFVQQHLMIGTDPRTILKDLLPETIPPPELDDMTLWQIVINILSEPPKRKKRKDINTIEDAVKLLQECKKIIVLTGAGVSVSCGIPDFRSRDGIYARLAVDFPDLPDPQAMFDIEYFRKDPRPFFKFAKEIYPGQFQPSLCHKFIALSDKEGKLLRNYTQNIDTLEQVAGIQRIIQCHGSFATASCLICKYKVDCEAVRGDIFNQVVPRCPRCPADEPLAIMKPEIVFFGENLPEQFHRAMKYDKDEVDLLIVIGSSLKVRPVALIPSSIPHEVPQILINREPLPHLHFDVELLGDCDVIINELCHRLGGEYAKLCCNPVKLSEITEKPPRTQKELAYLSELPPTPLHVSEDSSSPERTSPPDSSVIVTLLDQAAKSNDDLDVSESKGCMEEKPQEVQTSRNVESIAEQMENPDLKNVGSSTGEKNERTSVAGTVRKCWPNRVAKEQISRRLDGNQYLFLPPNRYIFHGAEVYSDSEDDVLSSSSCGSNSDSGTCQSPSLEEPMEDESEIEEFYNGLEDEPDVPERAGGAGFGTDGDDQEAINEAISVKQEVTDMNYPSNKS
Method: Human SIRT1-7 FLAG-tagged plasmids were transfected in 293 cells with lipofectamine reagent (Invitrogen). Cells were lysed 24 hours after transfection with lysis buffer (50 mM Tris-Hcl, pH 7.5, 0.5 mM EDTA, 0.5% NP40, 150 mM NaCl) in the presence of protease inhibitors (Roche Molecular Biochemicals, Indianapolis, Ind.). Equal amounts of total proteins were immunoprecipitated with α-FLAG (anti-FLAG antibody) coupled to M2 agarose beads (Sigma, St Louis, Mo.), for 2 hours at 4° C. Immunoprecipitated material was washed twice with immunoprecipitation (IP) buffer and one time with SIRT deacetylation buffer (50 mM Tris-HCl pH 9, 4 mM MgCl2, 0.2 mM DTT). The beads were resuspended in 100 μl SIRT deacetylation buffer containing 1 μg synthetic Tat (72 amino acids) carrying an N-terminal biotin label and an acetyl group at position 50. Kaehlcke et al. (2003), supra. Reactions containing TSA (400 nM, WACO Bioproducts, Richmond, Va.) or nicotinamide (5 mM, Sigma) were preincubated for 10 min at room temperature. […] Reactions were stopped by the addition of SDS loading buffer, boiled, and after brief centrifugation, analyzed by western blotting with rabbit α-AcTat antibodies (Kaehlcke et al. (2003), supra) or horseradish peroxidase-conjugated streptavidin (Jackson Immunoresearch Laboratories, West Grove, Pa.). SIRT1-7 proteins were detected with polyclonal α-FLAG antibodies (Sigma).

| SMILES | basal HIV promoter activity [1] | transcriptional activity of AcTat (transactivation of the HIV promoter) [1] | SIRT1-mediated deacetylation of Tat (SIRT1) | other results |
| --- | --- | --- | --- | --- |
| OC[C@H]1O[C@@H](n2cnc3cc(Cl)c(Cl)cc32)[C@H](O)[C@@H]1O [DRB, 5,6-dichlorobenzimidazole riboside] | – | – | – | transactivation by both Tat proteins (Tat and AcTat) ([1]; DRB 10 or 50 μM, four hours): inhibited in a dose-dependent manner |
| O=C1Oc2ccc3cc(Br)ccc3c2CC1c1ccccc1 (stereo not drawn) [HR73] | – | – | – | GFP expression from the EF-1α promoter [2]: not affected; reduction of HIV gene expression as measured by GFP expression [3]: 5 fold; activity of the RSV LTR (RSV LTR): did not suppress; suppression of Tat-dependent HIV transcription [4]: 3 fold; acetylation of p53 (p53): induced hyperacetylation |
| NC(=O)c1cccnc1 [nicotinamide] | stimulating | blocked | completely inhibited | – |
| CC(/C=C/C(=O)NO)=C\[C@@H](C)C(=O)c1ccc(N(C)C)cc1 [TSA] | enhanced | enhanced | no effect | – |
